The target of experiment [1] is T1, wild-type human cardiac sodium channel, hNav1.5 (Homo sapiens, UniProt Q14524). Kind of experiment: Late INa screening assay (QPatch whole cell patch clamp, HEK293). Particulars: HEK293, percent block of late INa; compound at 1 μM; 10 μM Tefluthrin; read-out: Late INa 1 μM. Format: cell-based. The procedure, abridged: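 HEK293 stably expressing hNav1.5 without beta subunits, recorded at 23-25° C. Late current was induced by 10 μM tefluthrin. Cells were depolarized from −120 mV to −20 mV for 250 ms at 0.1 Hz. Compounds were tested at 1 μM in extracellular solution, with baseline taken in 0Na-ECF; output is percent block of late INa.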

Experiment [2] has as its target T1, wild-type human cardiac sodium channel, hNav1.5. Kind of experiment: Peak INa screening assay (tonic and use-dependent block). The following applies: compound at 1 μM. The class given is cell-based. Here is the method: The late sodium current (Late INa) and peak sodium current (Peak INa) assays are performed on an automated electrophysiology platform, QPatch 16× (Sophion Bioscience, Copenhagen, Denmark), which uses the whole cell patch clamp technique to measure currents through the cell membrane of up to 16 cells at a time. The assay uses an HEK293 (human embryonic kidney) cell line heterologously expressing the wild-type human cardiac sodium channel, hNav1.5, purchased from Millipore (Billerica, Mass.). No beta subunits were coexpressed with the Na channel alpha subunit. Cells are maintained with standard tissue culture procedures and stable channel expression is maintained with 400 μg/mL Geneticin in the culture medium. Cells isolated for use on QPatch are incubated for 5 minutes in Detachin 1×(Genlantis, San Diego, USA) at 37° C. to ensure that 80-90% of the cells are single and not part of a cell cluster. Experiments are carried out at 23-25° C.
For both the Late INa and Peak INa assays, series resistance compensation is set to 100% and series resistance and whole-cell compensation are performed automatically. Currents are digitized at 25 kHz and low-pass filtered at 12 kHz and 10 kHz for the late and peak INa assays, respectively. Currents through open sodium channels are automatically recorded and stored in the Sophion Bioscience Oracle database (Sophion Bioscience, Copenhagen, Denmark). Analysis is performed using QPatch Assay and database software and data are compiled in Excel.
Compound stocks are routinely made by the Gilead Sample Bank in plastic vials to 10 mM in dimethyl sulfoxide (DMSO). In some cases, when compounds are not soluble in DMSO, they are made in 100% ethanol. Stocks are sonicated as necessary. The extracellular solution for screening Late INa is composed of: 140 mM NaCl, 4 mM KCl, 1.8 mM CaCl2, 0.75 mM MgCl2 and 5 mM HEPES with pH adjusted to 7.4 using NaOH. The intracellular solution used to perfuse the inside of the cells for both the Late INa and Peak INa assays contains: 120 mM CsF, 20 mM CsCl, 5 mM EGTA, 5 mM HEPES and pH adjusted to 7.4 with CsOH. Compounds are diluted in extracellular solution to 1 μM in glass vials and then transferred to glass well plates before robotic addition to the cells. The 0 mM Na extracellular solution (0Na-ECF) used at the end of each experiment for the Late INa and Peak INa assays to measure baseline current contains: 140 mM N-methyl-D-glucamine; 4 mM KCl; 1.8 mM CaCl2; 0.75 mM MgCl2; 5 mM HEPES and pH was adjusted to 7.4 with HCl.
Compounds were also evaluated for their effect in several other assays, including their effect on Peak INa. […] Since the peak INa in the cells used herein can be very large, introducing artifacts in the recording, the concentration of Na^+ in the bath can be reduced to 20 mM and a nonpermeant cation added to compensate for the Na^+ that was removed to maintain the osmolarity and ionic strength of the solution (see solution details below).
A low stimulation frequency of 0.1 Hz was used to determine the effect of the test compound when the channel spent most of the time in the resting (closed) state and provides information about Tonic Block (TB). A higher stimulation frequency (3 Hz) was used to measure block of the channel when it spent more time in the activated and inactivated states and provided a measure of Use-Dependent Block (UDB). Use-dependent block refers to the accumulation of block with increased frequency of channel activation.

The mark [3] stands for this setting: tonic block of peak INa, 0.1 Hz, read-out: Peak TB 1 μM.
The mark [4] stands for this setting: use-dependent block of peak INa, 3 Hz, read-out: Peak UDB 1 μM.

T1 sequence (Q14524 whole entry): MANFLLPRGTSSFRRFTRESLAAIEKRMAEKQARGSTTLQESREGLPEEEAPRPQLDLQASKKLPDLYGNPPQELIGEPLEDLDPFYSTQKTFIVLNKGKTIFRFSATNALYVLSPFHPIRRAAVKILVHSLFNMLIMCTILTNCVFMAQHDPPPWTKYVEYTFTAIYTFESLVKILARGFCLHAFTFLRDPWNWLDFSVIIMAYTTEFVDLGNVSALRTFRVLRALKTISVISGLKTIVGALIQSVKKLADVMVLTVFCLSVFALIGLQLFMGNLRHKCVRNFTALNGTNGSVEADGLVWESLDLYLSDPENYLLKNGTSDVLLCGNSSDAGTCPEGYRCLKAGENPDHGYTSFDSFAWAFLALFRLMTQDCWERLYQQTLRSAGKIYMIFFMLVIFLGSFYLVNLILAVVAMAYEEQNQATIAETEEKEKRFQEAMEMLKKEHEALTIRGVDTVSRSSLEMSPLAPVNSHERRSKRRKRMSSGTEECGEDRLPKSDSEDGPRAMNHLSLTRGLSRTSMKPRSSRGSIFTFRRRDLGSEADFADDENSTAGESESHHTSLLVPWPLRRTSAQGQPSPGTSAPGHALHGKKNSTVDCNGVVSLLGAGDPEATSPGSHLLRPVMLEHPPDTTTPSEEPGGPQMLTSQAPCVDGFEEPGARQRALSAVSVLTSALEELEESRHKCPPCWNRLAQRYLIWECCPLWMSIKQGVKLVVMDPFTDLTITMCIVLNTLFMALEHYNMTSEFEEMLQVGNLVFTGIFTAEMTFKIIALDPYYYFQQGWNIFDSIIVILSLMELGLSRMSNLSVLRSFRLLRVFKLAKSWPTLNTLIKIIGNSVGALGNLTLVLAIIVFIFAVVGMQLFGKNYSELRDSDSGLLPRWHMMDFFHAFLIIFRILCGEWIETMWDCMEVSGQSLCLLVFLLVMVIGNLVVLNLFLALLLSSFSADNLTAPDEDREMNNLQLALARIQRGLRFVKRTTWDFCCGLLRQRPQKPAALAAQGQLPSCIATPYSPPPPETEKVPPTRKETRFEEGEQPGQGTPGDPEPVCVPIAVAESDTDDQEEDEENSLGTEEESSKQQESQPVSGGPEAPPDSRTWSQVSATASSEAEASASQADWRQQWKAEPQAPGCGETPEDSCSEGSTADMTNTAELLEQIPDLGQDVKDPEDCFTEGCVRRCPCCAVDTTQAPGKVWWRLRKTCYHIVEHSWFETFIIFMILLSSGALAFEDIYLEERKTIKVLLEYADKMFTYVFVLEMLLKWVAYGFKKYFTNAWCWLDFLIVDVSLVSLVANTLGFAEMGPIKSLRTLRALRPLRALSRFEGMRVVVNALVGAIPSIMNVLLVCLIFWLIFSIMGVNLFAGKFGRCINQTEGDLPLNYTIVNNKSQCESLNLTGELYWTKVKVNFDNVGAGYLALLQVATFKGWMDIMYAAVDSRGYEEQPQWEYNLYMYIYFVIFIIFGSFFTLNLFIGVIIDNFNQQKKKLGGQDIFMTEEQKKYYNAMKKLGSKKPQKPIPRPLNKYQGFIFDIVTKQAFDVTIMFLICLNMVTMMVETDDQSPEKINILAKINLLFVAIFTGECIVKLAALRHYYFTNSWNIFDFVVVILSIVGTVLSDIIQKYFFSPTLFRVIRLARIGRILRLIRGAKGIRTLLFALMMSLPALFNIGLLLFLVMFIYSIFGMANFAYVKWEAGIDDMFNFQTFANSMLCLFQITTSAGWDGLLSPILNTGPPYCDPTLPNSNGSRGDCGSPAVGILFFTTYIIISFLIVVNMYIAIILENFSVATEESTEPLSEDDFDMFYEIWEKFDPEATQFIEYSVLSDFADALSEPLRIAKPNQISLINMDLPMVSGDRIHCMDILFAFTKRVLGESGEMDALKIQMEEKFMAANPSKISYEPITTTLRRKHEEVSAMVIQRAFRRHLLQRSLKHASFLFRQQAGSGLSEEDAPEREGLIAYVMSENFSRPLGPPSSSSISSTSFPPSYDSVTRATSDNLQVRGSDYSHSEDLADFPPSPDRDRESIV

For the compound `O=C1c2cc(-c3ccc(OC(F)(F)F)cc3)ccc2OCCN1Cc1cccc(C(F)(F)F)n1` [II-15, 7-(4-(trifluoromethoxy)phenyl)-4-((6-(trifluoromethyl)pyridin-2-yl)methyl)-3,4-dihydrobenzo[f][1,4]oxazepin-5(2H)-one], the inhibition at 1 µM in experiment [1] worked out at 48%; in experiment [2] (setting [3]) it was 8%; in experiment [2] (setting [4]), 8%.

With `O=C1c2cc(-c3ccc(OC(F)(F)F)cc3)ccc2OCCN1Cc1cnccn1` [II-31, 4-(pyrazin-2-ylmethyl)-7-(4-(trifluoromethoxy)phenyl)-3,4-dihydrobenzo[f][1,4]oxazepin-5(2H)-one], the inhibition at 1 µM stood at 51% in experiment [1], 9% in experiment [2] (setting [3]) and 8% in experiment [2] (setting [4]).

On to `Cc1cnc(CN2CCOc3ccc(-c4ccc(OC(F)(F)F)cc4)cc3C2=O)o1` [II-33, 4-((5-methyloxazol-2-yl)methyl)-7-(4-(trifluoromethoxy)phenyl)-3,4-dihydrobenzo[f][1,4]oxazepin-5(2H)-one], for which the inhibition at 1 µM is 46% in experiment [1], 10% in experiment [2] (setting [3]) and 13% in experiment [2] (setting [4]).

As for `O=C1c2cc(-c3ccc(OC(F)(F)F)cc3)ccc2OCCN1Cc1ccccc1Cl` [II-47, 4-(2-chlorobenzyl)-7-(4-(trifluoromethoxy)phenyl)-3,4-dihydrobenzo[f][1,4]oxazepin-5(2H)-one], the inhibition at 1 µM was determined as 60% in experiment [1], 13% in experiment [2] (setting [3]) and 45% in experiment [2] (setting [4]).

`O=C1c2cc(-c3ccc(OC(F)(F)F)cc3)ccc2OCCN1Cc1c(Cl)cccc1Cl` [II-48, 4-(2,6-dichlorobenzyl)-7-(4-(trifluoromethoxy)phenyl)-3,4-dihydrobenzo[f][1,4]oxazepin-5(2H)-one]: the figures for the inhibition at 1 µM in experiment [1], in experiment [2] (setting [3]) and in experiment [2] (setting [4]) were 47%, 13% and 53%, respectively.

As to `O=C1c2cc(-c3ccc(OC(F)(F)F)cc3)ccc2OCCN1Cc1c(F)cccc1F` [II-49, 4-(2,6-difluorobenzyl)-7-(4-(trifluoromethoxy)phenyl)-3,4-dihydrobenzo[f][1,4]oxazepin-5(2H)-one], the inhibition at 1 µM was 63% in experiment [1], 28% in experiment [2] (setting [3]) and 44% in experiment [2] (setting [4]).

Consider `O=C1c2cc(-c3ccc(OC(F)(F)F)cc3)ccc2OCCN1CCn1cccn1` [II-50, 4-(2-(1H-pyrazol-1-yl)ethyl)-7-(4-(trifluoromethoxy)phenyl)-3,4-dihydrobenzo[f][1,4]oxazepin-5(2H)-one], for which the values for the inhibition at 1 µM in experiment [1], in experiment [2] (setting [3]) and in experiment [2] (setting [4]) were 48%, 5% and 19%, respectively.

Regarding `O=C1c2cc(-c3ccc(OC(F)(F)F)cc3)ccc2OCCN1CCc1ccccn1` [II-54, 4-(2-(pyridin-2-yl)ethyl)-7-(4-(trifluoromethoxy)phenyl)-3,4-dihydrobenzo[f][1,4]oxazepin-5(2H)-one], the inhibition at 1 µM in experiment [1] was found to be 51%; in experiment [2] (setting [3]), 13%; in experiment [2] (setting [4]) it was 20%.

For `O=C1c2cc(-c3ccc(OC(F)(F)F)cc3)ccc2OCCN1Cc1ccccc1F` [II-57, 4-(2-fluorobenzyl)-7-(4-(trifluoromethoxy)phenyl)-3,4-dihydrobenzo[f][1,4]oxazepin-5(2H)-one], the inhibition at 1 µM in experiment [1] is 55%; in experiment [2] (setting [3]), 50%; in experiment [2] (setting [4]), 41%.

For the compound `O=C1c2cc(-c3ccc(OC(F)(F)F)cc3)ccc2OCCN1Cc1ccc(F)cc1` [II-62, 4-(4-fluorobenzyl)-7-(4-(trifluoromethoxy)phenyl)-3,4-dihydrobenzo[f][1,4]oxazepin-5(2H)-one], the inhibition at 1 µM was determined as 49% in experiment [1], 10% in experiment [2] (setting [3]) and 14% in experiment [2] (setting [4]).

For the compound `Cn1ccc(CN2CCOc3ccc(-c4ccc(OC(F)(F)F)cc4)cc3C2=O)n1` [II-64, 4-((1-methyl-1H-pyrazol-3-yl)methyl)-7-(4-(trifluoromethoxy)phenyl)-3,4-dihydrobenzo[f][1,4]oxazepin-5(2H)-one], the values for the inhibition at 1 µM in experiment [1], in experiment [2] (setting [3]) and in experiment [2] (setting [4]) were 55%, 12% and 19%, respectively.

As for `O=C1c2cc(-c3ccc(OC(F)(F)F)cc3)ccc2OCCN1Cc1ccccn1` [II-72, 4-(pyridin-2-ylmethyl)-7-(4-(trifluoromethoxy)phenyl)-3,4-dihydrobenzo[f][1,4]oxazepin-5(2H)-one], the inhibition at 1 µM in experiment [1] was 60%; in experiment [2] (setting [3]), 22%; in experiment [2] (setting [4]), 34%.

Take `O=C1c2cc(-c3ccc(OC(F)(F)F)cc3)ccc2OCCN1Cc1ccccc1` [II-134, 4-benzyl-7-(4-(trifluoromethoxy)phenyl)-3,4-dihydrobenzo[f][1,4]oxazepin-5(2H)-one]: the results for the inhibition at 1 µM in experiment [1], in experiment [2] (setting [3]) and in experiment [2] (setting [4]) were 69%, 38% and 34%, respectively.

With `COc1ccnc(CN2CCOc3ccc(-c4ccc(OC(F)(F)F)cc4)cc3C2=O)n1` [II-137, 4-((4-methoxypyrimidin-2-yl)methyl)-7-(4-(trifluoromethoxy)phenyl)-3,4-dihydrobenzo[f][1,4]oxazepin-5(2H)-one], the inhibition at 1 µM in experiment [1] was found to be 54%; in experiment [2] (setting [3]), 28%; in experiment [2] (setting [4]), 26%.

For the compound `O=C1c2cc(-c3ccc(C(F)(F)F)cc3)ccc2OCCN1Cc1ccccc1` [II-141, 4-benzyl-7-(4-(trifluoromethyl)phenyl)-3,4-dihydrobenzo[f][1,4]oxazepin-5(2H)-one], the inhibition at 1 µM in experiment [1] stood at 73%; in experiment [2] (setting [3]) it was 40%; in experiment [2] (setting [4]), 40%.

As for `O=C1c2cc(-c3ccc(OCC4CCC4)cc3)ccc2OCCN1Cc1ncccn1` [II-144, 7-(4-(cyclobutylmethoxy)phenyl)-4-(pyrimidin-2-ylmethyl)-3,4-dihydrobenzo[f][1,4]oxazepin-5(2H)-one], the inhibition at 1 µM turned out to be 68% in experiment [1], 34% in experiment [2] (setting [3]) and 41% in experiment [2] (setting [4]).

In the case of `O=C1c2cc(-c3ccc(OC(F)(F)F)cc3)ccc2OCCN1Cc1ccn(C(F)F)n1` [II-147, 4-((1-(difluoromethyl)-1H-pyrazol-3-yl)methyl)-7-(4-(trifluoromethoxy)phenyl)-3,4-dihydrobenzo[f][1,4]oxazepin-5(2H)-one], the inhibition at 1 µM in experiment [1] turned out to be 54%; in experiment [2] (setting [3]) it was 13%; in experiment [2] (setting [4]) it was 6%.

Take `O=C1c2cc(-c3ccc(CC(F)(F)F)cc3)ccc2OCCN1Cc1ccccn1` [II-151, 4-(pyridin-2-ylmethyl)-7-(4-(2,2,2-trifluoroethyl)phenyl)-3,4-dihydrobenzo[f][1,4]oxazepin-5(2H)-one]: the inhibition at 1 µM came to 51% in experiment [1], 13% in experiment [2] (setting [3]) and 14% in experiment [2] (setting [4]).

As for `CCn1ccc(CN2CCOc3ccc(-c4ccc(OC(F)(F)F)cc4)cc3C2=O)n1` [II-153, 4-((1-ethyl-1H-pyrazol-3-yl)methyl)-7-(4-(trifluoromethoxy)phenyl)-3,4-dihydrobenzo[f][1,4]oxazepin-5(2H)-one], the figures for the inhibition at 1 µM in experiment [1], in experiment [2] (setting [3]) and in experiment [2] (setting [4]) were 56%, 15% and 13%, respectively.

Source of the values: patent publication US9676760B2, “Fused heterocyclic compounds as ion channel modulators” (Gilead Sciences, Inc., priority 2011, dated 2017).
